Structures can show the parent of a compound that is named as a salt. Where two headings read alike, the source gives them in different places.
Columns and labels:
Experiment in all cases: Virus pre-incubation, plaque formation in TMPRSS cells
Assay type in all cases: cell-based
SARS-CoV-2 Delta variant = details: 10 mM; for inhibition at 10000 µM: read-out: inhibition / inactivation
SARS-CoV-2 variant beta = details: Severe acute respiratory syndrome coronavirus 2, 2 h; 5 mM, 120 min incubation
SARS-CoV-2 variant alpha = details: Severe acute respiratory syndrome coronavirus 2, 2 h; 5 mM, 120 min incubation
SARS-CoV-2 variant gamma = details: Severe acute respiratory syndrome coronavirus 2, 2 h; 5 mM, 120 min incubation

Molecule | inhibition / inactivation (SARS-CoV-2 Delta variant; 15 min incubation, sustained through 90 minutes) [%] | inhibition / inactivation (SARS-CoV-2 Delta variant; 120 min incubation) [%] | inhibition at 5000 µM (SARS-CoV-2 variant beta) [%] | inhibition at 5000 µM (SARS-CoV-2 variant alpha) [%] | inhibition at 10000 µM (SARS-CoV-2 Delta variant; Severe acute respiratory syndrome coronavirus 2, 2 h, 120 min incubation) [%] | inhibition at 10000 µM (SARS-CoV-2 Delta variant; Severe acute respiratory syndrome coronavirus 2, 15 min incubation, sustained through 90 minutes) [%] | inhibition at 5000 µM (SARS-CoV-2 variant gamma) [%]
2-aminoethanethiol [cysteamine] | 85 | 100 | – | – | – | – | –
NCCS [cysteamine HCl] | – | – | 85 to 95 | 85 to 95 | 100 | 85 | 85 to 95

Source: US12527753B2, “Cysteamine for the treatment, mitigation and prevention of coronaviral, e.g., SARS-CoV-2, infections” (The Regents of the University of Michigan, priority 2020, dated 2026)
